Reference: paper PMC6411751, “Use of machine learning to identify novel, behaviorally active antagonists of the insect odorant receptor co-receptor (Orco) subunit” (Scientific Reports, 2019)
Where a name gives a salt, the structure may show the parent alone.

Key:
[1] = test system: sham (water) injected oocytes; experiment: Application of Orco antagonists to sham (water) injected oocytes; format: cell-based, Xenopus laevis; details: 3 mM
Experimental: To measure antagonist activity at Orco, Agam\Orco was activated by the Orco agonist OLC12[34]. Following two successive 60 sec applications of 30 μM OLC12, with 5 min washes between applications, each antagonist candidate was applied for 90 sec, immediately followed by a 60 sec co-application of antagonist candidate and OLC12. The 90 sec application of each compound alone (prior to co-application of the compound and OLC12) allowed us to ensure that antagonist candidate compounds were not causing non-specific effects on the oocytes that might confound the results. The current response to OLC12 in the presence of antagonist candidate was compared to the mean of the preceding two responses to OLC12 alone and presented as a percentage[34],[35]. This value was then normalized to the value obtained when the assay was run in the absence of antagonist candidate (sham).
Figure S2. Applic a tion of Orco antagonists to s ha m (wa ter) injected oocytes.
Up p e r tra ce, current recording from a sham (water) injected oocyte that was challenged with 60 sec applications of 100 µM an d 1 mM 3-isopropyl-6-methyl-ca t e ch o l (3 I6MC). Representative of recordings from 4 oocytes. Lo we r trace, current recording from a sham (water) injected oocyte that was challenged with 60 sec applications of 3 mM 2-tert-butyl-6-methylphenol (BMP) and linalyl formate (LF). Representative of recordings […]

fruit fly antennae = experiment: Electroantennogram (EAG) recordings in adult flies; format: in vivo, Drosophila melanogaster; details: for amplitude of EAG responses to EA and 2 H: adult flies
From the text: Adult flies (w1118 strain, 3–5 days old) were mounted in truncated pipette tips for detection of antennal responses[69],[70]. EAG data were obtained with an IDAC-232 (Syntech), which was linked to a computer via the EAGpro data acquisition interface. SSR data were acquired with an IDAC 4 and AutoSpike (Syntech). Recording and indifferent electrodes were made of silver/silver chloride wires enclosed in glass capillary needles, which were pulled with a Micropipette Puller (P-97, Sutter Instruments Co.) and filled with 1 M potassium chloride in 1% polyvinylpyrrolidone. The indifferent electrode was inserted in the eye of an immobilized fly, while the EAG recording electrode was placed on the third segment of the antenna under a S2X12 Olympus microscope and by using a micromanipulator MP-12 (Syntech). For SSR, the recording electrode was inserted into a desired sensillum under a stage microscope (BX51WI, Olympus) and using a Piezo Manipulator (PM10, World Precision Instrument). The stimulus delivery system consisted of a Stimulus Controller CS-55 (Syntech), which delivered charcoal-filtered, humidified air at 650 mL/min through a stimulus tube (5 cm long; internal diameter, 8 mm). The outlet of the stimulus delivery tube was set 1 cm away from the preparations. Stimulus pulses (0.5 sec) were introduced through a hole in the stimulus delivery tube 2.5 cm away from outlet. A compensatory flow was applied through another hole in the tube (directly across from the stimulus pulse hole). The total flow (continuous plus compensatory or continuous plus stimulus) of 0.6 mL/s was measured at the center of the outlet of the stimulus delivery tube with an Anemometer Lite (Model 6006, Kanomax, Osaka, Japan). 10 µL of the odorants EA and 2 H (freshly diluted to 0.01%, 0.1% or 1% in mineral oil) or the Orco antagonist compounds BMP and LF (freshly diluted to 1% or 50% in mineral oil) were loaded onto filter papers (1 cm^2). The filter papers containing odorants were placed inside of stimulus cartridges. Loading of odorant containing filter papers into the cartridges occurred in ambient air, which could contain trace amounts of odorants. Thus, stimulus pulses with ambient air (filter papers containing mineral oil alone) in the cartridges were used to define a baseline response. For EAG, filter papers containing BMP or LF (50% in mineral oil) were placed inside the main airflow tube 8 cm away from the antenna and odorants were delivered through a hole 2.5 cm away from the outlet. For SSR, BMP (1% in mineral oil) was delivered into the holes 2.5 cm away from the outlet, whereas the odorants were delivered upstream through a hole 4 cm away from the outlet. The different delivery arrangements may contribute to the difference in apparent BMP potency in the EAG and SSR experiments (Figs 6 and 7). Each filter paper was used 3–5 times before being replaced. CO2 was freshly collected into stimulus cartridge from the breath of the same subject (P.X.) and used only once. Spikes were manually counted 0.5 s before and 0.5 s after stimulus and the results presented as poststimulus number of spikes per 0.5 s (number of spikes after stimulus minus number of spikes prior to stimulus). Data were analyzed with One Way ANOVA using Prism 7 (GraphPad).

[2] = test system: ab2 sensilla (EA responsive OSN); experiment: Single sensillum recording (SSR), ab2 sensilla, ethyl acetate response; format: in vivo, Drosophila melanogaster
From the text: (§1) Adult flies (w1118 strain, 3–5 days old) were mounted in truncated pipette tips for detection of antennal responses[69],[70]. EAG data were obtained with an IDAC-232 (Syntech), which was linked to a computer via the EAGpro data acquisition interface. SSR data were acquired with an IDAC 4 and AutoSpike (Syntech). Recording and indifferent electrodes were made of silver/silver chloride wires enclosed in glass capillary needles, which were pulled with a Micropipette Puller (P-97, Sutter Instruments Co.) and filled with 1 M potassium chloride in 1% polyvinylpyrrolidone. The indifferent electrode was inserted in the eye of an immobilized fly, while the EAG recording electrode was placed on the third segment of the antenna under a S2X12 Olympus microscope and by using a micromanipulator MP-12 (Syntech). […] The total flow (continuous plus compensatory or continuous plus stimulus) of 0.6 mL/s was measured at the center of the outlet of the stimulus delivery tube with an Anemometer Lite (Model 6006, Kanomax, Osaka, Japan). […] Spikes were manually counted 0.5 s before and 0.5 s after stimulus and the results presented as poststimulus number of spikes per 0.5 s (number of spikes after stimulus minus number of spikes prior to stimulus). Data were analyzed with One Way ANOVA using Prism 7 (GraphPad).

[3] = test system: ab1 sensilla (CO2 responsive OSN, Gr21 and Gr63a); experiment: Single sensillum recording (SSR), ab1 sensilla, CO2 response; format: in vivo, Drosophila melanogaster; details: 10 µL of 1% compound in mineral oil
From the text: as §1

[4] = 10 µL of 50% compound in mineral oil in main airflow

Compound | non-specific effects on sham (water) injected oocytes [1] | amplitude of EAG responses to EA and 2 H (fruit fly antennae; [4]) | SSR response of ab2 sensilla to EA ([2]; 10 µL of 1% compound in mineral oil, 0.1% EA) | reversibility of effect on ab2 EA response ([2]; subsequent response to EA alone) | baseline EAG response to ambient air (fruit fly antennae; [4]) | extent of inhibition of EAG responses across 0.01%, 0.1%, 1% 2H (fruit fly antennae; 50% BMP in main airflow, n = 3) | extent of inhibition of EAG responses across 0.01%, 0.1%, 1% EA (fruit fly antennae; 50% BMP in main airflow, n = 3) | odorant agonist activity in EAG (fruit fly antennae; compound alone) | SSR response of ab1 sensilla to CO2 [3]
C=CC(C)(CCC=C(C)C)OC=O (centres unmarked) [LF, linalyl formate] | Neither BMP or LF exerted any non-specific effects | did not alter the amplitude |  |  |  |  |  |  | 
Cc1cccc(C(C)(C)C)c1O [BMP, 2-tert-butyl-6-methylphenol] | Neither BMP or LF exerted any non-specific effects | significantly reduced the amplitude | abolished the response | reversible | significantly reduced the baseline response | did not differ | did not differ | did not act as an odorant agonist | had no effect on the CO2 response
